Data taken from patent publication US9884063B2, “Amido-substituted azole compounds” (Bayer Pharma Aktiengesellschaft, priority 2014, dated 2018).

System: wildtype Wnt signaling cascade
Test: HEK293 TOP Assay (Super TopFlash luciferase reporter, Wnt-3a stimulated)
Type: cell-based
Conditions: Homo sapiens, HEK293, 16 h, HEK293 TOP reporter cell line, Wnt-3a at EC50, 16 hours incubation, compound dilution series 50 μM to 15 nM
Method: In order to discover and characterize small molecules which inhibit the wildtype Wnt pathway, a cellular reporter assay was employed. The corresponding assay cell was generated by transfection of the mammalian cell line HEK293 (ATCC, #CRL-1573) with the Super TopFlash vector (Morin, Science 275, 1997, 1787-1790; Molenaar et al., Cell 86 (3), 1996, 391-399). The HEK293 cell line is cultivated at 37° C. and 5% CO2 in DMEM (Life Technologies, #41965-039), supplemented with 2 mM glutamine, 20 mM HEPES, 1.4 mM pyruvate, 0.15% Na-bicarbonate and 10% foetal bovine serum (GIBCO, #10270). Stable transfectants were generated by selection with 300 μg/ml Hygromycin.
In preparation of the assay, the two cell lines were plated 24 hrs before beginning the test at 10000 cells per well in a 384 micro titre plate (MTP) in 30 μl growth medium. […] The recombinant human Wnt-3a was thereby applied between 2500 and 5 ng/ml in two-fold dilution steps.
Selective inhibitory activity for small molecules on the wildtype Wnt pathway was determined after parallel incubation of both (TOP and FOP) HEK293 reporter cell lines with a compound dilution series from 50 μM to 15 nM in steps of 3.16-fold dilutions in CAFTY buffer (130 mM sodium chloride, 5 mM potassium chloride, 20 mM HEPES, 1 mM magnesium chloride, 5 mM sodium bicarbonate, pH 7.4) containing 2 mM Ca^2+ and 0.01% BSA.
The compounds were thereby serially prediluted in 100% DMSO and thereafter 50 fold into the CAFTY compound dilution buffer (described above).

| SMILES | IC50 [µM] |
| --- | --- |
| CNC(=O)c1nc[nH]c1C(=O)Nc1ccc(NC(=O)c2c(OC)cccc2OC)cc1 [Example 57, N^5-{4-[(2,6-dimethoxybenzoyl)amino]phenyl}-N^4-methyl-1H-imidazole-4,5-dicarboxamide] | 33 |
| CNC(=O)c1nc[nH]c1C(=O)Nc1ccc(NC(=O)c2c(Cl)cc(Cl)cc2Cl)cc1 [Example 59, N^4-methyl-N^5-{4-[(2,4,6-trichlorobenzoyl)amino]phenyl}-1H-imidazole-4,5-dicarboxamide] | 6.58 |
| COC(=O)c1nc[nH]c1C(=O)Nc1ccc(NC(=O)c2ccc(F)cc2)c(F)c1 [Example 75, methyl-5-({3-fluoro-4-[(4-fluorobenzoyl)amino]phenyl}carbamoyl)-1H-imidazole-4-carboxylate] | 13 |
| Cc1cc(NC(=O)c2[nH]cnc2C(=O)NCCN(C)C)ccc1NC(=O)c1ccccc1Cl [Example 88, N^5-{4-[(2-chlorobenzoyl)amino]-3-methylphenyl}-N^4-[2-(dimethylamino)ethyl]-1H-imidazole-4,5-dicarboxamide] | 2.4 |
| CNC(=O)c1nc[nH]c1C(=O)Nc1ccc(NC(=O)c2ccc(F)cc2)c(C)c1 [Example 91, N^5-{4-[(4-fluorobenzoyl)amino]-3-methylphenyl}-N^4-methyl-1H-imidazole-4,5-dicarboxamide] | 44.5 |
| Cc1cc(NC(=O)c2[nH]cnc2C(=O)NCCN2CCCCC2)ccc1NC(=O)c1ccc(F)cc1 [Example 93, N^5-{4-[(4-fluorobenzoyl)amino]-3-methylphenyl}-N^4-[2-(piperidin-1-yl)ethyl]-1H-imidazole-4,5-dicarboxamide] | 2.65 |
| CNC(=O)c1nc[nH]c1C(=O)Nc1ccc(NC(=O)c2ccc(F)cc2)c(OC)c1 [Example 103, N^5-{4-[(4-fluorobenzoyl)amino]-3-methoxyphenyl}-N^4-methyl-1H-imidazole-4,5-dicarboxamide] | 38 |
| COc1cc(NC(=O)c2[nH]cnc2C(=O)NCCN(C)C)ccc1NC(=O)c1ccc(F)cc1 [Example 104, N^4-[2-(dimethylamino)ethyl]-N^5-{4-[(4-fluorobenzoyl)amino]-3-methoxyphenyl}-1H-imidazole-4,5-dicarboxamide] | 7.2 |
| COC(=O)c1nc[nH]c1C(=O)Nc1ccc(NC(=O)c2ccccc2Cl)nc1 [Example 111, methyl 5-({6-[(2-chlorobenzoyl)amino]pyridin-3-yl}carbamoyl)-1H-imidazole-4-carboxylate] | 0.77 |
| CNC(=O)c1nc[nH]c1C(=O)Nc1ccc(NC(=O)c2ccc(F)cc2)nc1 [Example 115, N^5-{6-[(4-fluorobenzoyl)amino]pyridin-3-yl}-N^4-methyl-1H-imidazole-4,5-dicarboxamide] | 3.55 |
| CN(C)CCNC(=O)c1nc[nH]c1C(=O)Nc1ccc(NC(=O)c2ccc(F)cc2)nc1 [Example 116, N^4-[2-(dimethylamino)ethyl]-N^5-{6-[(4-fluorobenzoyl)amino]pyridin-3-yl}-1H-imidazole-4,5-dicarboxamide] | 44 |
| O=C(Nc1ccc(NC(=O)c2[nH]cnc2C(=O)NCCN2CCCCC2)cn1)c1ccc(F)cc1 [Example 117, N^5-{6-[(4-fluorobenzoyl)amino]pyridin-3-yl}-N^4-[2-(piperidin-1-yl)ethyl]-1H-imidazole-4,5-dicarboxamide] | 40 |
| O=C(Nc1ccc(NC(=O)c2nc[nH]c2C(=O)NCCO)cc1)c1ccc(F)cc1 [Example 136, N^4-{4-[(4-fluorobenzoyl)amino]phenyl}-N^5-(2-hydroxyethyl)-1H-imidazole-4,5-dicarboxamide] | 2.4 |
| COCCNC(=O)c1[nH]cnc1C(=O)Nc1ccc(NC(=O)c2ccc(F)cc2)cc1 [Example 140, N^4-{4-[(4-fluorobenzoyl)amino]phenyl}-N^5-(2-methoxyethyl)-1H-imidazole-4,5-dicarboxamide] | 5.7 |
| O=C(Nc1ccc(NC(=O)c2nc[nH]c2C(=O)NCC(F)F)cc1)c1ccc(F)cc1 [Example 141, N^5-(2,2-difluoroethyl)-N^4-{4-[(4-fluorobenzoyl)amino]phenyl}-1H-imidazole-4,5-dicarboxamide] | 3 |
